From patent US8686011B2, “Inhibitors of 11-β-hydroxy steroid dehydrogenase type 1” (Amgen Inc., priority 2004, dated 2014)

What was measured:
11β-HSD1 (human enzyme) = biological target: T1, 11β-HSD1 (human enzyme) (Homo sapiens, UniProt P28845); assay: Enzyme Assay (SPA, 3H-cortisone, purified HSD-1 enzyme prep), human enzyme; assay type: biochemical; settings: species of enzyme not given
T1 construct: made in house

intraocular pressure = settings: ingestion, normal subjects; cited from earlier work

T1 sequence (P28845 whole entry): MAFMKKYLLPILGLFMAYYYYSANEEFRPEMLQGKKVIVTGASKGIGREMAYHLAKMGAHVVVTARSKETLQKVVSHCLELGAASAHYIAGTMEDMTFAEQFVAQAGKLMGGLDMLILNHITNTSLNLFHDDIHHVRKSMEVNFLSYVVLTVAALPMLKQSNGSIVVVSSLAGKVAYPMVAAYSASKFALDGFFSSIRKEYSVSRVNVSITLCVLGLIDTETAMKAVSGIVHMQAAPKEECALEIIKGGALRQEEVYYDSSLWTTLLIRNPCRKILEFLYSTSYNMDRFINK

Row | IC50 (11β-HSD1 (human enzyme)) [nM] | Structure (SMILES) | reduction of intraocular pressure (intraocular pressure) [%]
1 | < 20 | C[C@H](NC1=NC(=O)C(C)(c2ccncc2)S1)c1ccc(F)cc1 (stereo partly drawn) [2-((S)-1-(4-fluorophenyl)ethylamino)-5-methyl-5-(pyridin-4-yl)thiazol-4(5H)-one] | –
2 | < 20 | Cc1c(Cl)cccc1NC1=NC(=O)C(C(C)C)S1 (centres unmarked) [2-((3-chloro-2-methylphenyl)amino)-5-(1-methylethyl)-1,3-thiazol-4(5H)-one] | –
3 | < 20 | O=C1N=C(Nc2ccccc2Cl)SC1C1CCCC1 (centres unmarked) [2-(2-chlorophenylamino)-5-cyclopentylthiazol-4(5H)-one] | –
4 | < 20 | C[C@@]1(c2ccccc2)SC(Nc2ccccc2Cl)=NC1=O [(5S)-2-((2-chlorophenyl)amino)-5-methyl-5-phenyl-1,3-thiazol-4(5H)-one] | –
5 | < 20 | CC1(c2ccncc2)SC(Nc2ccccc2Cl)=NC1=O (centres unmarked) [2-(2-chlorophenylamino)-5-methyl-5-(pyridin-4-yl)thiazol-4(5H)-one] | –
6 | < 20 | CCCC1(C)SC(N[C@@H]2C[C@H]3CC[C@@H]2C3)=NC1=O (stereo partly drawn) [2-((1R,2R,4S)-bicyclo[2.2.1]heptan-2-ylamino)-5-methyl-5-propylthiazol-4(5H)-one] | –
7 | < 20 | CO[C@@H]1CCC[C@@]2(C1)SC(NC1CCCCCCC1)=NC2=O [(5S,7R)-2-(cyclooctylamino)-7-(methyloxy)-1-thia-3-azaspiro[4.5]dec-2-en-4-one] | –
8 | < 20 | O=C1N=C(Nc2ccccc2F)SC1C1CCCC1 (centres unmarked) [5-cyclopentyl-2-(2-fluorophenylamino)thiazol-4(5H)-one] | –
9 | < 20 | CC(C)C1(C)SC(N[C@H](C)c2ccc(F)cc2)=NC1=O (stereo partly drawn) [2-((R)-1-(4-fluorophenyl)ethylamino)-5-isopropyl-5-methylthiazol-4(5H)-one] | –
10 | < 20 | CC1(c2ccccc2)SC(Nc2ccccc2Cl)=NC1=O (centres unmarked) [2-((2-chlorophenyl)amino)-5-methyl-5-phenyl-1,3-thiazol-4(5H)-one] | –
11 | < 20 | CC1(C2CCOCC2)SC(Nc2ccccc2Cl)=NC1=O (centres unmarked) [2-(2-chlorophenylamino)-5-methyl-5-(tetrahydro-2H-pyran-4-yl)thiazol-4(5H)-one] | –
12 | < 20 | O=C1N=C(NCC2CCCCC2)SC1[C@H]1CCOC1 (stereo partly drawn) [2-(cyclohexylmethylamino)-5-(S)-tetrahydrofuran-3-yl)thiazol-4(5H)-one] | –
13 | < 20 | CC1([C@H]2CCOC2)SC(NCC2CCCCC2)=NC1=O (stereo partly drawn) [2-(cyclohexylmethylamino)-5-methyl-5-((S)-tetrahydrofuran-3-yl)thiazol-4(5H)-one] | –
14 | < 20 | CC(C)C1SC(Nc2ccccc2Cl)=NC1=O (centres unmarked) [2-((2-chlorophenyl)amino)-5-(1-methylethyl)-1,3-thiazol-4(5H)-one] | –
15 | < 20 | CCC1(C)SC(NC23CC4CC(CC(C4)C2)C3)=NC1=O (centres unmarked) [5-ethyl-5-methyl-2-(tricyclo[3.3.1.1˜3,7˜]dec-1-ylamino)-1,3-thiazol-4(5H)-one] | –
16 | < 20 | CC(C)[C@@]1(C)SC(Nc2ccccc2Cl)=NC1=O [(5R)-2-((2-chlorophenyl)amino)-5-methyl-5-(1-methylethyl)-1,3-thiazol-4(5H)-one] | –
17 | < 20 | CC(C)C1(C)SC(NC23CC4CC(CC(F)(C4)C2)C3)=NC1=O (centres unmarked) [2-((3-fluorotricyclo[3.3.1.1˜3,7˜]dec-1-yl)amino)-5-methyl-5-(1-methylethyl)-1,3-thiazol-4(5H)-one] | –
18 | < 20 | C[C@H](NC1=NC(=O)C(C)(c2ccncc2)S1)c1ccccc1F (stereo partly drawn) [2-((S)-1-(2-fluorophenyl)ethylamino)-5-methyl-5-(pyridin-4-yl)thiazol-4(5H)-one] | –
19 | < 20 | O=C1N=C(Nc2ccccc2F)SC1[C@H]1CCOC1 (stereo partly drawn) [2-(2-fluorophenylamino)-5-((S)-tetrahydrofuran-3-yl)thiazol-4(5H)-one] | –
20 | < 20 | CC1(CC(F)(F)F)SC(N[C@@H]2C[C@H]3CC[C@@H]2C3)=NC1=O (stereo partly drawn) [2-((1R,2R,4S)-bicyclo[2.2.1]heptan-2-ylamino)-5-methyl-5-(2,2,2-trifluoroethyl)thiazol-4(5H)-one] | –
21 | < 20 | O=C1N=C(Nc2ccccc2Cl)SC1C1CCCCC1 (centres unmarked) [2-(2-chlorophenylamino)-5-cyclohexylthiazol-4(5H)-one] | –
22 | < 20 | CC(C)C1(C)SC(N[C@@H](C)C2CCCCC2)=NC1=O (stereo partly drawn) [2-((S)-1-cyclohexylethylamino)-5-isopropyl-5-methylthiazol-4(5H)-one] | –
23 | – | CC1(C)[C@@H](OC(=O)CCC(=O)O)CC[C@]2(C)[C@H]3C(=O)C=C4[C@@H]5C[C@@](C)(C(=O)O)CC[C@]5(C)CC[C@@]4(C)[C@]3(C)CC[C@@H]12 [carbenoxolone] | 20
24 | < 20 | CC1(c2ccncc2)SC(Nc2ccccc2C(F)(F)F)=NC1=O (centres unmarked) [5-methyl-5-(pyridin-4-yl)-2-(2-(trifluoromethyl)phenylamino)thiazol-4(5H)-one] | –
25 | < 20 | Cc1ccc(F)cc1NC1=NC(=O)C(C(C)C)S1 (centres unmarked) [2-((5-fluoro-2-methylphenyl)amino)-5-(1-methylethyl)-1,3-thiazol-4(5H)-one] | –
26 | < 20 | O=C1N=C(Nc2ccccc2F)SC12CCCC2 [2-((2-fluorophenyl)amino)-1-thia-3-azaspiro[4.4]non-2-en-4-one] | –
